Results reported in publication PMC3345088 (Journal of Immunology (Baltimore, Md. : 1950), 2012).
Read-outs that look alike come from different tables or passages of the source.

Assays:
[1] = system: HLA class II alleles; design: species or system human
[2] = target: DRB1*01:01 (Homo sapiens, UniProt P01903+P01911, A100R/D57E/F55L/F60I/F76Y/I96L/L162R/M171V/P40L/Q125E/R42F/V115G/Y59C); assay: MHC-peptide binding assay
[3] = system: CD4+ T cells from LTBI donors; assay: HLA locus restriction, antibody inhibition IFNγ ELISPOT; format: cell-based, human; details: antibodies 10 µg/ml against HLA-DR, DP or DQ

CFP10 40–54: 15-mer peptide epitope, residues 40–54 of CFP10 (Rv3874) (QGQWRGAAGTAAQAA; UniProt P9WNK5 40-54, looked up, fragment)
Donors that responded expressing DRB1*01:01 [1]: 3 of 4
Binding to DRB1*01:01 [2]: high affinity
Restricting HLA locus ([3]; donor TU7): DP, DQ, DR

ESAT-6 3–17: 15-mer peptide epitope, residues 3–17 of ESAT-6 (Rv3875) (EQQWNFAGIEAAASA; UniProt P9WNK7 3-17, looked up, fragment)
Restricting HLA locus ([3]; donor TU25): DQ, DR

Rv2031c 106–120: 15-mer peptide epitope, residues 106–120 of Rv2031c (hspX) (VGADEDDIKATYDKG; UniProt P9WMK1 106-120, looked up, fragment)
Restricting HLA locus ([3]; donor TU2): DP, DR
Restricting HLA locus ([3]; donor TU8): DP, DQ, DR
Restricting HLA locus ([3]; donor TU29): DP, DR

ESAT-6 73–87: 15-mer peptide epitope, residues 73–87 of ESAT-6 (Rv3875) (ARTISEAGQAMASTE; UniProt P9WNK7 73-87, looked up, fragment)
No. donors expressing allele resp. [1]: 3 of 5
No. donors expressing allele resp. ([1]; listed as ESAT-6_72–87): 3 out of 5

CFP10 52–66: 15-mer peptide epitope, residues 52–66 of CFP10 (Rv3874)
No. donors expressing allele resp. [1]: 4 of 5
No. donors expressing allele resp. ([1]; listed as CFP10_52–66): 4 out of 5

CFP10 72–86: 15-mer peptide epitope, residues 72–86 of CFP10 (Rv3874) (ISTNIRQAGVQYSRA; UniProt P9WNK5 72-86, looked up, fragment)
Restricting HLA locus ([3]; donor TU2): DP, DQ, DR
Restricting HLA locus ([3]; donor TU11): DP, DQ, DR
